Reference: US20260265771A1, “METHODS OF INCREASING THE REGENERATION EFFICIENCY IN PLANTS” (Institute of Genetics and Developmental Biology Chinese …, priority 2022, published 2026)
“Also recorded” adds a separate entry of the source.

Tests used:
wheat = assay: Root and shoot growth of wheat; assay type: in vivo; settings: 100 nM TaREF1 vs absence
Description: (a) photos of wheat grown in the presence of 100 nm TaREF1, or in the absence of TaREF1 (mock). (b) primary root length in wheat grown in the presence of 100 nm TaREF1, or in the absence of TaREF1 (mock). (c) shoot length of wheat grown in the presence of 100 nm TaREF1, or in the absence of TaREF1 (mock).
The wheat SIPEP (REF1) orthologue (TaREF1) was investigated to establish whether REF1 can increase the regenerative capacity in wheat.

[1] = tested on: Chinese Spring and JM22 wheat; assay: Callus formation of wheat immature embryos on CIM; assay type: cell-based; settings: exogenous TaREF1
Description: (a) photos of Chinese Spring wheat grown in the presence or 0 nM, 0.01 nM or 0.1 nM TaREF1. (b) immature embryos of Chinese Spring were cultured on CIM containing indicated concentrations of TaREF1, and callus phenotype was scored at 14 days after incubation on CIM. Callus formation capacity was represented by the percentage of immature embryo explants with regenerated embryonic calli. Data are mean±SD of three independent experiments.
(§1) TaREF1 was also shown to increase the callus formation capacity of Chinese spring wheat when applied exogenously (FIG. 43) and JM22 wheat (FIG. 54).

[2] = tested on: Chinese Spring, Kn199 and JM22 wheat; assay: Shoot regeneration of wheat; assay type: cell-based
Description: (a) photos of Kn199 wheat grown in the presence of 0.01 nM or 1 nM TaREF1 or absence of TaREF1 (mock). (b) photos of Kn199 wheat grown in the presence of 0.01 nM or 1 nM TaREF1 or absence of TaREF1.
as §1
Shoot regeneration frequency was established by calculating the average number of shoots, in the context of the present invention shoot regenerative capacity refers to the number of shoots per explant in each condition.

mature seeds of ZH11 = assay: Callus formation of rice mature seeds on CIM; assay type: cell-based, Oryza sativa; settings: for callus formation capacity, increase: 20 days
Description: Mature seeds of ZH11 were cultured on CIM containing indicated concentrations of OsREF1. (a) photos of ZH11 grown in presence of 1 nM and 10 nM OsREF1 or in the absence of OsREF1 (mock). (b) callus phenotype was scored 20 days after incubation on CIM. Callus formation capacity was represented by the percentage of mature seed explants with regenerated embryonic calli. Data are mean±SD of three independent experiments.
Mature seeds of ZH11 were cultured on CIM containing indicated concentrations of OsREF1 (1 nM and 10 nM). As shown in FIG. 27A calluses formed that were larger in the presence of OsREF1 than in the absence of OsREF1.

[3] = tested on: ZH11, Nipponbare and 9311 rice; assay: Shoot regeneration of rice on SIM; assay type: cell-based, Oryza sativa; settings: for shoot regeneration: SIM, 10 nM; for shoot regeneration capacity, increase: 10 nM OsREF1 vs absence
Description: ZH11 was cultured on SIM containing indicated concentrations of OsREF1. (a) photos of ZH11 grown in presence of 0 nM and 10 nM OsREF1. (b) shoot regeneration capacity of ZH11 grown in with either 0 nM or 10 nM OsREF1.
Nipponbare was cultured on SIM containing indicated concentrations of OsREF1. (a) photos of nipponbare grown in presence of 0 nM and 10 nM OsREF1. (b) shoot regeneration capacity of nipponbare grown in with either 0 nM or 10 nM OsREF1.
9311 rice was cultured on SIM containing indicated concentrations of OsREF1. (a) photos of 9311 rice grown in presence of 0 nM and 10 nM OsREF1. (b) shoot regeneration capacity of 9311 rice grown in with either 0 nM or 10 nM OsREF1.
Shoot regeneration was investigated in ZH11 and Nipponbare Japonica rice as well as 9311 indica rice. OsREF1 promoted shoot generation in all three of these rice varieties.

[4] = tested on: wild allotetraploid rice (L-04); assay: Growth (primary root length) of wild allotetraploid rice; assay type: in vivo; settings: L-04, 10 nM OsREF1 vs mock
Description: L-04 rice was grown in the presence of 10 nM OsREF1 or in the absence of OsREF1 (mock). (a) photos of L-04 rice grown in presence the of 10 nM OsREF1 or absence of OsREF1 (mock). (b) primary root length of L-04 rice grown in the presence of 10 nM OsREF1 or absence of OsREF1 (mock).

[5] = tested on: wild allotetraploid rice (L-04); assay: Shoot regeneration of wild allotetraploid rice; assay type: cell-based
Description: (a) images of L-04 rice grown in the presence of 10 nM OsREF1 or absence of OsREF1 (mock). (b) regeneration frequency of L-04 rice grown in the presence of 10 nM OsREF1 or absence of OsREF1.

[6] = tested on: seeds of wild allotetraploid rice L-04; assay: Callus formation of wild allotetraploid rice seeds on CIM; assay type: cell-based; settings: for callus formation capacity, increase: vs absence
Description: L-04 rice was grown in the presence of 10 nM or 1 nM OsREF1 or in the absence of OsREF1 (mock). (a) photos of L-04 rice grown in presence the of 10 nM, 1 nM OsREF1 or absence of OsREF1 (mock). (b) callus formation capacity of L-04 rice grown in the presence of 10 nM, 1 nM OsREF1 or absence of OsREF1 (mock).
Seeds of wild allotetraploid rice L-04 were cultured on CIM containing indicated concentrations of OsREF1 (1 nM and 10 nM) for 20 days.

[7] = tested on: leaves of peach cultivar GF677; assay: Callus formation of peach leaves on CIM; assay type: cell-based
Description: (a) photos of peach cultivar GF677 grown on a CIM in the presence of 100 nM PpREF1 and in the absence of PpREF1 (mock). (b) callus formation capacity of peach cultivar […] grown on a CIM in the presence 100 nM PpREF1 and in the absence of PpREF1 (mock) after 24 days. Callus formation capacity was represented by the percentage of leaves explants with regenerated embryonic calli. Data are mean±SD of three independent experiments.
Leaves of peach cultivar GF677 were cultured on CIM containing indicated concentrations of PpREF1, and callus phenotype was scored at 24 days after incubation on CIM. Callus formation capacity was represented by the percentage of leaves explants with regenerated embryonic calli. Data are mean±SD of three independent experiments. Callus formation capacity was increased by 10-fold in peach cultivar GF677 leaves grown in the presence of 100 nM PpREF1 compared to leaves grown in the absence of PpREF1.

[8] = tested on: hypocotyl explants of cotton; assay: Callus formation of cotton hypocotyl explants on CIM; assay type: cell-based
Description: (a) photos of cotton grown in the presence of 0.1 nM, 1 nM 10 nM, 100 nM 500 nM GaREF1 or absence of GaREF1 (mock), (b) Hypocotyl explants of cotton were cultured on callus-inducing medium (CIM) containing indicated concentrations of GaREF1, and callus phenotype was scored at 14 days after incubation. Box plots represent the distribution of projected callus area. The projected area of callus was quantified by Image J. Individual values (black dots) are shown and error bars represent SD from three independent experiments. ***P<0.001, **P<0.01, *P<0.05 (Student's t-test).
The cotton SIPEP (REF1) orthologue (GaREF1) was investigated to establish its effect on cotton regenerative capacity.

sunflower explants = assay: Shoot regeneration of sunflower cotyledon explants; assay type: cell-based
Description: (A) The shoot regenerative capacity was represented by the relative frequency of explants with the regenerated shoots. (B) The shoot regenerative capacity was represented by the number of explants with different number of regenerated shoots. Bars show mean±SD. ***P<0.001, **P<0.01, *P<0.05 (Student's t-test). (C) photos of sunflower plants grown in the presence of 1 nM HaREF1, 10 nM HaREF1 or absence of HaREF1 (mock).
The sunflower SIPEP (REF1) orthologue (HanREF1) was investigated to establish its effect on sunflower regenerative capacity.
For the regeneration protocol we referred to Radonic et al., 2015. The explant used in the sunflower regeneration assay was cotyledon.
Shoot regeneration frequency was established by calculating the average number of shoots, in the context of the present invention shoot regenerative capacity refers to the number of shoots per explant in each treatment.

[9] = tested on: young embryos of B104 and Chang 7-2; assay: Shoot regeneration of maize young embryos; assay type: cell-based
Description: Young embryos of B104 and Chang 7-2 were treated with 0, 0.1 or 1 nM of ZmREF1. For both B-104 and Chan 7-2 shoot regeneration frequency was increased when ZmREF1 was applied, for B-104 this was greatest at 1 nM, however, for Chan 7-2 this was greatest at 0.1 nM, as shown in FIG. 52.

pepper roots = assay: Root hair formation in pepper; assay type: in vivo, Capsicum annuum; settings: 0, 10 and 100 nM CaREF1
Description: The pepper SIPEP (REF1) orthologue (CaREF1) was investigated to establish whether CaREF1 can increase the regenerative capacity of pepper (Capsicum annuum).

[10] = tested on: pepper cotyledon explants; assay: Callus formation of pepper cotyledon explants on CIM; assay type: cell-based, Capsicum annuum; settings: CIM, 0, 1 and 10 nM CaREF1
Description: Cotyledon explants were cultured on callus-inducing medium (CIM) containing indicated concentrations of CaREF1. (a) photos of cotelydon explants grown with 0 nM, 1 nM and 10 nM CaREF1. (b) relative callus area of cotelydon explants grown with 0 nM, 1 nM and 10 nM CaREF1. Box plots represent the distribution of projected callus area. The projected area of callus was quantified by Image J. Individual values (black dots) are shown and error bars represent SD from three independent experiments. **P<0.01, *P<0.05 (Student's t-test).

In the case of “AVRRPRPPGNPREGRGGGGGSHN (listed as Triticum aestivum) [TaREF1]”, the root length (wheat) is reported as “increased; also recorded: promotes root and shoot growth”, the shoot length (wheat) is reported as “increased; also recorded: promotes root and shoot growth” and the callus formation capacity ([1]; Chinese spring wheat) is reported as “increase”. For the same sequence, the callus formation capacity ([1]; JM22 wheat) was “increase; also recorded: promotes callus formation”, the shoot regeneration ([2]; Chinese Spring wheat) was “promotes shoot regeneration” and the shoot regeneration ([2]; JM22 wheat) was “promotes shoot regeneration”. For the same sequence, the shoot regeneration ([2]; Kn199 wheat) was “promotes shoot regeneration”.

In the case of “DDSKPTGPGAPAEGSGGDGGAIH (listed as Oryza sativa) [OsREF1]”, the “callus formation capacity, increase” value (mature seeds of ZH11; ZH11, 1 nM OsREF1 vs absence) is reported as ~ 2 fold, the “callus formation capacity, increase” value (mature seeds of ZH11; ZH11, 10 nM OsREF1 vs absence) is reported as ~ 3 fold and the callus formation (mature seeds of ZH11; ZH11 Japonica rice, presence vs absence of OsREF1) is reported as “larger; also recorded: promotes callus formation”. For the same sequence, the shoot regeneration ([3]; 9311 indica rice) was “promotes shoot regeneration”, the “shoot regeneration capacity, increase” value ([3]; 9311 rice) was ~ 3.5 fold and the shoot regeneration ([3]; Nipponbare Japonica rice) was “promotes shoot regeneration”. For the same sequence, the “shoot regeneration capacity, increase” value ([3]; Nipponbare rice) was ~ 4 fold, the shoot regeneration ([3]; ZH11 Japonica rice) was “promotes shoot regeneration” and the “shoot regeneration capacity, increase” value ([3]; ZH11 rice) was ~ 4 fold. The growth [4] was “promotes the growth”, the primary root length [4] was “significantly increased” and the “shoot regeneration frequency, increase” value ([5]; L-04, 10 nM OsREF1 vs absence) was ~ 12.2 fold. For the same sequence, the shoot regeneration ([5]; L-04, 10 nM OsREF1 vs mock) was “promotes shoot regeneration”, the “callus formation capacity, increase” value ([6]; L-04, 1 nM OsREF1, 20 days) was ~ 7.4 fold and the “callus formation capacity, increase” value ([6]; L-04, 10 nM OsREF1, 20 days) was ~ 8.9 fold. For the same sequence, the callus formation ([6]; L-04, 1 or 10 nM OsREF1 vs mock) was “promotes callus formation”.

“KRPRITLRAARPEISTGSGAQTN (listed as Prunus persica) [PpREF1]” was tested, and the callus formation ([7]; GF677, 100 nM PpREF1 vs mock) was “promotes callus formation” and the “callus formation capacity, increase” value ([7]; GF677 leaves, 100 nM PpREF1 vs absence, 24 days) was 10 fold.

For “LPMVSLFTPKRPGTSAGSGPQIN (listed as Gossypium arboreum) [GaREF1]”, the “relative callus area, concentration dependence” value ([8]; 0.1-500 nM GaREF1) was “increasing as concentration of GaREF1 is increased” and the “relative callus area / callus formation” value ([8]; presence vs absence of GaREF1, 14 days) was “increased; also recorded: promotes callus formation”.

In the case of “RRLTRRPPPPRGPISSGGGGQTN (listed as Helianthus annuus) [HanREF1]”, the “shoot regeneration, increase” value (sunflower explants; 1 nM HanREF1 vs absence) is reported as ~ 2.1 fold, the “shoot regeneration, increase” value (sunflower explants; 10 nM HanREF1 vs absence) is reported as ~ 4.5 fold and the shoot regeneration (sunflower explants; 1 or 10 nM vs mock) is reported as “promotes shoot regeneration”.

With “RRPRPRPPDHAREGSGGNGGVHH (Zea mays) [ZmREF1]” the “concentration with greatest shoot regeneration frequency” value ([9]; B-104) was 1 nM, the shoot regeneration frequency ([9]; B-104 and Chan 7-2, 0.1 or 1 nM ZmREF1 vs 0) was “increased; also recorded: promotes shoot regeneration” and the “concentration with greatest shoot regeneration frequency” value ([9]; Chan 7-2) was 0.1 nM.

For “TGRRRGRPPSRPGVGRGPPPENN (listed as Capsicum annuum) [CaREF1]”, the root hair formation (pepper roots) was “promotes root hair formation” and the callus formation [10] was “increased; also recorded: promotes callus formation”.
